The text below walks through data of patent US5635477A, “Cyclic compounds useful as inhibitors of platelet glycoprotein IIB/IIIA” (The DuPont Merck Pharmaceutical Company, priority 1995, dated 1997).

In experiment [1] the test system is thrombus in the femoral artery. As to the kind of experiment: in vivo thrombolysis, modified Lucchesi model. The note with it: listed as Compound A. An excerpt: Data represent mean±SEM. n=3-6 in each group.
Experiment [2] concerns femoral artery reocclusion. As to the kind of experiment: femoral artery reocclusion post-thrombolysis. Format: in vivo, canine (male or female mongrel dogs). As to the method: Effects of Compound A vs saline, when given to anesthetized canine (male or female mongrel dogs) at 1.0 mg/kg I.V., on the incidence of femoral artery reocclusion post-thrombolysis with streptokinase (250-300×1000 IU/kg) or t-PA. […] Data represents mean ±SEM, n=6 in each group.

Experiment [3] addresses T1, platelet GPIIb/IIIa receptor (Homo sapiens, UniProt P05106+P08514).
T1 construct: Human PRP (h-PRP) was applied to a Sepharose column for the purification of platelet fractions; endogenous in cells; host or cells: human gel-purified platelets (h-GPP) from donor platelet-rich plasma
In words: Platelet-Fibrinogen Binding Assay (125I-fibrinogen, h-GPP). Particulars: fibrinogen bound 20 minutes before compound. On the procedure: Platelet-Fibrinogen Binding Assay: Binding of ^125 I-fibrinogen to platelets was performed as described by Bennett et al. (1983) Proc. Natl. Acad. Sci. USA 80: 2417-2422, with some modifications as described below. Human PRP (h-PRP) was applied to a Sepharose column for the purification of platelet fractions. Aliquots of platelets (5×10^8 cells) along with 1 mM calcium chloride were added to removable 96 well plates prior to the activation of the human gel purified platelets (h-GPP). Activation of the human gel purified platelets was achieved using ADP, collagen, arachidonate, epinephrine, and/or thrombin in the presence of the ligand, ^125 I-fibrinogen. The ^125 I-fibrinogen bound to the activated, platelets was separated from the free form by centrifugation and then counted on a gamma counter.

Experiment [4] deals with already formed platelet-rich clot. Particulars: for lytic effect on already formed platelet-rich clot: varying concentrations. On the procedure:
Thrombolytic Assay: Venous blood was obtained from the arm of a healthy human donor who was drug-free and aspirin free for at least two weeks prior to blood collection, and placed into 10 ml citrated Vacutainer tubes. The blood was centrifuged for 15 minutes at 1500 ×g at room temperature, and platelet rich plasma (PRP) was removed. To the PRP was then added 1×10^- 3M of the agonist ADP, epinephrine, collagen, arachidonate, serotonin or thrombin, or a mixture thereof, and the PRP incubated for 30 minutes. The PRP was centrifuged for 12 minutes at 2500×g at room temperature. The supernatant was then poured off, and the platelets remaining in the test tube were resuspended in platelet poor plasma (PPP), which served as a plasminogen source. The suspension was then assayed on a Coulter Counter (Coulter Electronics, Inc., Hialeah, Fla.), to determine the platelet count at the zero time point. After obtaining the zero time point, test compounds were added at various concentrations. Test samples were taken at various time points and the platelets were counted using the Coulter Counter. To determine the percent of lysis, the platelet count at a time point subsequent to the addition of the test compound was subtracted from the platelet count at the zero time point, and the resulting number divided by the platelet count at the zero time point. […] For the IC50 evaluation, the test compounds were added at various concentrations, and the percentage of lysis caused by the test compounds was calculated.
Compounds A and B were also tested at varying concentrations using the thrombolytic assay described above (FIG. Ib). […] The clot was formed by incubating platelets with a mixture of agonists (TEAC mixture), which consists of thrombin (0.01 U/ml), epinephrine (250 uM), ADP (250 uM), and collagen (10 ug.ml), for 30 minutes. As a comparison, a linear peptide of sequence arginine-glycine-aspartic acid-serine (RGDS) was also tested in the thrombolytic assay.

The test system of experiment [5] is activated human platelets. In words: binding of 3H-labeled Compound A to activated human platelets. The note with it: Scatchard analysis. An excerpt: (§1) This effect may explain the lyric efficacy of the compounds of the present invention.
Experiment [6] has as its target agonist-induced platelet aggregation (Homo sapiens, UniProt P05106+P08514). As to the kind of experiment: Platelet Aggregation Assay. Format: cell-based. The note with it: human PRP. On the procedure:
Blood was collected into 10 ml citrated Vacutainer tubes.

For experiment [7], the target named is T2, purified GPIIb/IIIa receptors obtained from human platelets (Homo sapiens, UniProt P05106+P08514).
T2 construct: purified GPIIb/IIIa receptors obtained from human platelets; from tissue; host or cells: human platelets
T2 sequence (P08514 32-887 limits assumed): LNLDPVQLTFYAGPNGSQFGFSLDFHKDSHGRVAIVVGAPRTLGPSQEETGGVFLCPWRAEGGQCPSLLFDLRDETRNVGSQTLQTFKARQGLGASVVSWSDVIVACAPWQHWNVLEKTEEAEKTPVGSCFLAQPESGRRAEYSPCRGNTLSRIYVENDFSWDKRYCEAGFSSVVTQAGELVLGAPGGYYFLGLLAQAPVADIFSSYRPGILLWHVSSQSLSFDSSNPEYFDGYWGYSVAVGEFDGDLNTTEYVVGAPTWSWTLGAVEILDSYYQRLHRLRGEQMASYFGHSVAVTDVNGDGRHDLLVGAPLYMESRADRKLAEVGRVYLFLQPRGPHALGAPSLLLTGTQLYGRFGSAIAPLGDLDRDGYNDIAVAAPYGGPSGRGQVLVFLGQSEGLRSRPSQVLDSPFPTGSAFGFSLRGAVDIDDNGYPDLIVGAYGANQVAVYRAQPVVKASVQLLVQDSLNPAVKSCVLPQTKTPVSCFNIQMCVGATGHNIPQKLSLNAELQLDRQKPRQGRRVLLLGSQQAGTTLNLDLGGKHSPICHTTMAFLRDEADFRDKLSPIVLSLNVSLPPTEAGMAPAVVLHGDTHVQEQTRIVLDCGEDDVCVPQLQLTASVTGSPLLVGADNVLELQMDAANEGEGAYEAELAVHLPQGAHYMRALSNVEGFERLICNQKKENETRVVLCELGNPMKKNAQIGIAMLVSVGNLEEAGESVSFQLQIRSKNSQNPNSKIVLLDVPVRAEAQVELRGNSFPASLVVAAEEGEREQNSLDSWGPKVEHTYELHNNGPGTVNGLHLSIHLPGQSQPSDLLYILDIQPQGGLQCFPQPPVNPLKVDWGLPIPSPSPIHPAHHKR
T2 sequence (P08514 891-1039 partner limits assumed): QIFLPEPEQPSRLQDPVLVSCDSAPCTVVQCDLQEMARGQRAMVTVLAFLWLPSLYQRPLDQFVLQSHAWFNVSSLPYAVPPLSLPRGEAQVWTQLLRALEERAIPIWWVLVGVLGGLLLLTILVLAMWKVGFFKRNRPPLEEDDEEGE
T2 sequence (P05106 27-788): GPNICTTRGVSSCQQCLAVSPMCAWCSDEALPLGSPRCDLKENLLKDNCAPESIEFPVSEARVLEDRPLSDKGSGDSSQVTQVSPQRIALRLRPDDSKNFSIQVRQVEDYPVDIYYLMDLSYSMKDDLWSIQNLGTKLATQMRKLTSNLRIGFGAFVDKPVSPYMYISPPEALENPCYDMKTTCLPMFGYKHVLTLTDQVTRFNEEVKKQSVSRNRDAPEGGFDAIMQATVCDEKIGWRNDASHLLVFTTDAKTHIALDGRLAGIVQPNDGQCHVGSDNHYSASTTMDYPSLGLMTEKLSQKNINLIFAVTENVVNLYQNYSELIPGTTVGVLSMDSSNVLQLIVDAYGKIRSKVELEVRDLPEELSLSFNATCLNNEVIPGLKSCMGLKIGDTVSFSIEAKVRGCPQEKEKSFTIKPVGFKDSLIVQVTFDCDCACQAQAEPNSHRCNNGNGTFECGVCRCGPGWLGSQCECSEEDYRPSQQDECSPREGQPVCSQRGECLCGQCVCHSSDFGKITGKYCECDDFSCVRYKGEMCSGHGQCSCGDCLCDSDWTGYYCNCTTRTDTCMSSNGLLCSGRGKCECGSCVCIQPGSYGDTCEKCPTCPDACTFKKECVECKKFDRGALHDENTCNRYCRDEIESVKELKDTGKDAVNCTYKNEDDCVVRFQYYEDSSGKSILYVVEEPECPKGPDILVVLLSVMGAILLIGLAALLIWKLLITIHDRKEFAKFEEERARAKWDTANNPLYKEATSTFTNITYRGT
In words: purified GPIIb/IIIa-biotinylated fibrinogen ELISA. Format: binding. The note with it: competitive; Michaelis-Menten analysis.
Description: as §1
(ELISA stands for enzyme-linked immunosorbent assay.)

Entries after “also recorded” stand apart in the source; their conditions may differ. Like-named read-outs stand apart in the source and are kept apart here. Non-standard residues stand in square brackets, D forms with d. Residues, ends and D or L forms follow the SMILES beside them. NMeR = CN[C@@H](CCCNC(=N)N)C(=O)O; 3Amb = NCc1cccc(C(=O)O)c1; dAbu = CC[C@@H](N)C(=O)O

agonist-induced platelet aggregation, sequence (P08514 32-1039): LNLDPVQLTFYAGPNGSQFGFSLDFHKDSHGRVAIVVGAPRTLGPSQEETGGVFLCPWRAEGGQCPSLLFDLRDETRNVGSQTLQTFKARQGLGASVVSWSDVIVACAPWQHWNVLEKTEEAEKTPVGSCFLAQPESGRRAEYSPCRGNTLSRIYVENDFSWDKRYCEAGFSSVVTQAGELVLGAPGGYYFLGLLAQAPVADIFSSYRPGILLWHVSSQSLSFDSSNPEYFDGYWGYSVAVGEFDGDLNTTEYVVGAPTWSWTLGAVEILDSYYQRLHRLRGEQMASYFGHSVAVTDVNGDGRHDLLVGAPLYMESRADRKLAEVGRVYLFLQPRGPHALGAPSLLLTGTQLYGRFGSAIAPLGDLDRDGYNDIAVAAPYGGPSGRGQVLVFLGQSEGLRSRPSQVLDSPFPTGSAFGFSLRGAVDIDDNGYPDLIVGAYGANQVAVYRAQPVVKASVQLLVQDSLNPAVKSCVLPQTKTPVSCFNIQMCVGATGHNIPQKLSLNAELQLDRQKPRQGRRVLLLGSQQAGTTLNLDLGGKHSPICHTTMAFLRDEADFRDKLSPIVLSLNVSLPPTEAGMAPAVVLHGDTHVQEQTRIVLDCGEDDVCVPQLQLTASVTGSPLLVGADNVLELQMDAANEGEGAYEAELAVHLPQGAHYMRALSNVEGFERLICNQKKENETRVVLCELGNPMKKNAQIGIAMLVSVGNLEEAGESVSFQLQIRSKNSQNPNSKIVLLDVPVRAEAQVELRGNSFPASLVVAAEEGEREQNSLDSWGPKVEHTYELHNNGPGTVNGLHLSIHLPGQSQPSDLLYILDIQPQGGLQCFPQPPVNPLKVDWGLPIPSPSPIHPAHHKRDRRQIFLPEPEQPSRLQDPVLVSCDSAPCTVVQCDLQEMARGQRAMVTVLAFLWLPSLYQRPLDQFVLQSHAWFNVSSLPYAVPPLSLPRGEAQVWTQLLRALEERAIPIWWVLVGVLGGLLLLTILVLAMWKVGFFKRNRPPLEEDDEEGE
agonist-induced platelet aggregation, sequence (P05106 27-788): as the sequence (P05106 27-788) above
T1 sequence (P08514 32-887 limits assumed): as the sequence (P08514 32-887 limits assumed) above
T1 sequence (P08514 891-1039 partner limits assumed): as the sequence (P08514 891-1039 partner limits assumed) above
T1 sequence (P05106 27-788): as the sequence (P05106 27-788) above

What is called Kd is the constant that tells how readily two partners part at equilibrium. A lower Kd goes with a tighter complex. In general, IC50 refers to the concentration at which inhibition is half-maximal. With `CC[C@H]1NC(=O)c2cccc(c2)CNC(=O)[C@H](CC(=O)O)NC(=O)CNC(=O)[C@H](CCCNC(=N)N)N(C)C1=O` [Example 3, cyclo-(D-Abu-NMeArg-Gly-Asp-Mamb)] (cyclo([NMeR]GD[3Amb][dAbu])), the “in vivo thrombolytic efficacy with streptokinase” value in experiment [1] (1 mg/kg I.V. plus sub-optimum streptokinase (75 KU)) is listed as “significant synergistic effect in fully lysing the thrombus; also recorded: increase in in vivo thrombolytic efficacy while allowing a significantly lower dose of streptokinase”. Also, the “in vivo thrombolytic efficacy alone” value in experiment [1] (1 mg/kg I.V.) is “significant lysis of an already formed thrombus in the femoral artery; also recorded: good in vivo thrombolytic efficacy”. In addition, the period without reocclusion in experiment [2] (1.0 mg/kg I.V., post-thrombolysis) was above 240 min. In experiment [2] (1.0 mg/kg I.V., post-thrombolysis with streptokinase or t-PA), this compound yielded a prevention of reocclusion of 100%. Further, in experiment [2] (dog, in vivo), the “reocclusion following SK or t-PA thrombolysis” value was “virtually no reocclusion”. In addition, the “displacement of 125I-fibrinogen bound to activated platelets” value in experiment [3] is “displace ^125 I-fibrinogen bound to activated platelets”. Moreover, in experiment [4] (0.001 mM, platelet stimulation 1x10^-3 M ADP), the lysis percentage is at least 70%. Further, the “lytic effect on already formed platelet-rich clot” value in experiment [4] (listed as A) is reported as “significant lyric efficacy of pre-formed platelet rich-clot”; in experiment [4] (listed as Compound A) it was “significant lytic effect on the clot”. In addition, in experiment [5], the Kd is 0.1 nM. Also, the deaggregation of platelets result in experiment [6] (added after initiation of aggregation) is reported as “deaggregate platelets after the initiation of aggregation”. The compound also had an IC50 in experiment [6] (agonist-induced aggregation) below 1000 nM.
Broadly, the Ki is a measure of affinity in units of concentration, obtained from inhibition or displacement. Low values mean tighter binding, high ones weaker binding. In turn, `CC[C@H]1NC(=O)c2cccc(c2)CNC(=O)[C@H](CC(=O)O)NC(=O)CNC(=O)[C@H](CCCN=C(N)N)N(C)C1=O` [Example 3, cyclo-(D-Abu-NMeArg-Gly-Asp-Mamb)] (cyclo([NMeR]GD[3Amb][dAbu])) came in with a Ki in experiment [7] of 0.4 nM. In other words, the sub-nanomolar range.
